Experimental data: patent US20110003753A1, “COMPOSITIONS AND METHODS FOR DISRUPTING THE FUNCTION OF THE TRANSCRIPTIONAL REPRESSOR COMPONENT Sin3A-PAH2 DOMAIN TO INDUCE DIFFERENTIATION AND GROWTH INHIBITION IN BREAST CANCER” (SAMUEL WAXMAN CANCER RESEARCH FOUNDATION, priority 2009, published 2011)

Assays:
Sin3B and MAD = test: Mammalian two-hybrid assay, GAL4 DBD-Sin3B and VP16AD-MAD in 293T cells; format: cell-based; conditions: 15 μM peptide applied to the cell culture medium
From the text: FIG. 2: SID decoy peptide blocks interactions between Sin3 PAH2 and MAD and interferes with recruitment of members of the Sin3 co-repressor complex. A. GST pull-down of MAD by the Sin3A PAH2 domain is blocked by SID peptide. Sin3A PAH2 domain (amino acids 306-450) was expressed in E. coli as a GST fusion and used in a pull down assay for in vitro interaction with 35S-methionine labeled MAD (left panel) or MAD immunoprecipitated from MDA-MB-231 cell lysates (right panel). 25% of input is shown for in vitro translated MAD and 10% of input for immunoprecipitated MAD (input). Assays were performed using 15 μM Tat-SID or Tat-SID^SCR peptide unless otherwise indicated. […] 293T cells were transfected with GAL4^uas×5-Tk-Luc reporter together with mammalian two-hybrid vectors expressing a fusion of Sin3B with GAL4 DNA binding domain (GAL4^DBD) and fusions of MAD and HDAC1 (columns 5-12 and 14-21, respectively) with VP16 activation domain (VP16^AD), as well as SID expression vectors, as indicated. […]
24 hours prior to transfection, 293T cells were plated at 50-60% confluence on 48-well plates. […] 48 hours post-transfection luciferase activity was measured using the Dual Luciferase assay system (Promega) on a Mithras LB940 plate reader (Berthold Technologies). […]

[1] = target: T1, PAH2 domain of Sin3A and MAD (Mus musculus, UniProt Q60520); test: GST pull-down of MAD by the Sin3A PAH2 domain; format: binding
T1 construct: amino acids 306-450 of mSin3A; made in house; host or cells: E. coli (GST-PAH2); MAD from rabbit reticulocyte in vitro translation or immunoprecipitated from MDA-MB-231 lysate
T1 sequence (Q60520 306-450): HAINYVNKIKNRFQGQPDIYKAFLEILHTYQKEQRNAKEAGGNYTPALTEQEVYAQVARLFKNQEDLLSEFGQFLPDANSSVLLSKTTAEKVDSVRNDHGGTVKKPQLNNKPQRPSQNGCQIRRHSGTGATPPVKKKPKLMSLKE
From the text: FIG. 2: SID decoy peptide blocks interactions between Sin3 PAH2 and MAD and interferes with recruitment of members of the Sin3 co-repressor complex. A. GST pull-down of MAD by the Sin3A PAH2 domain is blocked by SID peptide. Sin3A PAH2 domain (amino acids 306-450) was expressed in E. coli as a GST fusion and used in a pull down assay for in vitro interaction with 35S-methionine labeled MAD (left panel) or MAD immunoprecipitated from MDA-MB-231 cell lysates (right panel). 25% of input is shown for in vitro translated MAD and 10% of input for immunoprecipitated MAD (input). Assays were performed using 15 μM Tat-SID or Tat-SID^SCR peptide unless otherwise indicated. […]
GST pull-down assays were performed using the ProFound™ pull-down GST protein:protein interaction kit (Pierce) according to the manufacturer's instructions. […] Gels containing samples from MDA-MB-231 cell lysates were analyzed by Western immunoblot according to standard protocols. Pulled-down MAD was detected using mouse monoclonal anti-MAD (F-1) antibody (Santa Cruz), anti-mouse secondary antibody (Jackson ImmunoResearch), and enhanced chemiluminescence (ECL, Peirce).

ERα and RARβ = test: Re-expression of silenced genes in MDA-MB-231 cells; format: cell-based, human
From the text: This finding coincides with the increased expression of E-cadherin and CRBP1, known RAR target genes and the induction of p27, highly sensitive to RAR activation. […] Thus, blocking specific sites of a component of a transcriptional repressor limited to few transcription factors can be used to induce a differentiation phenotype and anti-tumor effect in breast cancer and that these events may, impart new and/or restore therapeutic targets in breast cancer.

With “YGRKKRRQGGGVRMNIQMLLEAADYLERRER [SID peptide]” the “increase in luciferase activity compared to GAL4 DBD-Sin3B and VP16AD-MAD co-expression” value (Sin3B and MAD) was “confirmed, albeit to a lesser degree”, the “blocking of interaction between PAH2 domain of Sin3A and in vitro translated MAD” value ([1]; 35S-methionine labeled MAD, 15 μM peptide unless otherwise indicated) was “blocked interactions” and the “blocking of interaction between PAH2 domain of Sin3A and MAD immunoprecipitated from MDA-MB-231 cells” value ([1]; MAD immunoprecipitated from MDA-MB-231 cell lysates, 15 μM peptide) was “blocked interactions”. The “re-expression of ERα and RARβ” value (ERα and RARβ) was “induced the re-expression of ERα and RARβ”.
